{"source": "a melting point compilation (Tetko et al.; mined from patent text by program, amines drawn as free bases though some values may be those of a salt)", "data": [{"units": {"melting point": "°C"}, "values": [{"compound": "Cc1noc(C)c1Cn1cc(NC(=O)[C@@H](C)c2ccccc2)cn1", "melting point": "108 to 110"}, {"compound": "O=C1c2ccccc2NC(=S)C2CCCN12", "note": "(stereo not given)", "melting point": "268 to 270"}, {"compound": "COC(=O)N=C(N)SC", "melting point": "72 to 77"}, {"compound": "CCOCc1nc2c(N)nc3ccccc3c2n1CC1(NC(=O)NC(C)C)CCCCC1", "melting point": "135 to 160"}, {"compound": "COc1ccc(C=NNC(=O)c2ccc(O)cc2)cc1", "melting point": 209}, {"compound": "COc1ccc(-c2cc3ccccc3[nH]2)cc1NC(N)=S", "melting point": "188 to 191"}, {"compound": "CCCOCC1CC2CCC13CN(CCC)CCC31c3cccc(O)c3OC21", "note": "(stereo not given)", "melting point": "123 to 124"}, {"compound": "CSCCCn1c(C)c(C(=O)c2cccc(Cl)c2Cl)c2cccc(Cl)c21", "melting point": 87}, {"compound": "N#CC1(Cc2nnn[nH]2)C2CCCC1CCC2", "note": "(stereo not given)", "melting point": "189 to 191"}, {"compound": "CC(C)Cn1c(CN2CCCS2(=O)=O)nc2c(N)nc3c(c21)CCCC3", "melting point": "200 to 203"}, {"compound": "Nc1nc(Cl)c(N)c(NCCCCO)n1", "melting point": "110 to 111"}, {"compound": "CC(=O)N(N1C(=O)C(NC(=O)Nc2cccc(C)c2)CC(c2ccccc2)CC1c1ccccc1)C(C)(C)C", "note": "(single isomer, unassigned; (-))", "melting point": "140 to 150"}, {"compound": "CCC(=O)NCCCC(=O)O", "melting point": "85 to 90"}, {"compound": "O=C(O)c1ccccc1OCCN1CCC(c2cn(Cc3ccoc3)c3ncccc23)CC1", "melting point": "105 to 107"}, {"compound": "c1ccc2c(c1)Nc1ccccc1-n1ccnc1-2", "melting point": "215 to 217"}, {"compound": "N#Cc1c(N2CCCCC2)cc(-c2ccc3ccc4cccc5ccc2c3c45)c2c1C(=O)c1ccccc1-2", "melting point": "180 to 182"}, {"compound": "Nc1ccc(N2CCN(c3ccccc3OCC3COC(Cn4cncn4)(c4ccc(Cl)cc4Cl)O3)CC2)cc1", "note": "(stereo not given)", "melting point": 187}, {"compound": "Cc1cc(C2=NN=C(C(N)=O)Cc3cc4c(cc32)OCO4)ccc1[N+](=O)[O-]", "melting point": "266 to 268"}, {"compound": "COc1ccccc1NS(=O)(=O)c1ccc(NC2=C(Cl)C(=O)c3ccccc3C2=O)cc1", "melting point": "198 to 201"}, {"compound": "CCCCc1nc(CO)c(C(=O)OC)n1Cc1ccc(-c2ccccc2C(=O)OC(C)(C)C)cc1", "melting point": 99}, {"compound": "CC1(C)Cc2cccc(C(=O)O)c2S1", "melting point": "179 to 182"}, {"compound": "CN1c2ccccc2N(C(=O)CN2CCCC2)c2ccccc2S1(=O)=O", "melting point": "175 to 177"}, {"compound": "CCc1nc2c(O)c(CCC(=O)c3ccccc3)c(C(=O)N(C)C)cc2n1C", "melting point": "177 to 180"}, {"compound": "COCCOc1cc(C(F)(F)F)cc(Oc2ccc(CCNc3ncnc4nccnc34)cc2)n1", "melting point": "101 to 104"}, {"compound": "Clc1cccc(Cl)c1N=C1NCCN1OCc1ccccc1", "melting point": "115 to 117"}, {"compound": "O=C=Nc1c2c(cc3c1CCC3)CCC2", "melting point": "40 to 41"}, {"compound": "O=C1CCCN1CC1(O)CCN(c2ccnc(C(F)(F)F)n2)CC1", "melting point": "170 to 172"}, {"compound": "CCn1nc(C(F)(F)F)c(CS(=O)(=O)C2=NOC(C)(CCl)C2)c1S(C)(=O)=O", "note": "(stereo not given)", "melting point": "113 to 114"}, {"compound": "O=C(O)c1ccccc1C(=O)c1ccc(F)cc1F", "melting point": "129 to 131"}, {"compound": "COc1ccc(CSc2nnc(-c3ccc4[nH]ncc4c3)o2)cc1C(F)(F)F", "melting point": "136 to 137"}, {"compound": "Cc1sc(-c2ccccc2)nc1CCOc1cc(COc2ccccc2CC(=O)O)on1", "melting point": "159 to 160"}, {"compound": "O=C(O)Cn1c(=O)c(=O)[nH]c2ccc3ccc(-n4ccc(CN5CC=C(c6ccccc6)CC5)c4)cc3c21", "melting point": "> 250"}, {"compound": "CC(C)NC(=O)c1cc(Oc2ccc3c(C(=O)Nc4cccc(C(F)(F)F)c4)cccc3c2)ncn1", "melting point": "205 to 208"}, {"compound": "CC(C)(C)C1=C(c2cc3cc(O)ccc3s2)OCC1(C)C", "melting point": 196}, {"compound": "CCC(C)(C)N=C(Nc1cncnc1)c1ccc(Cl)cc1Cl", "melting point": "136 to 137"}, {"compound": "CC(=O)Oc1c(C)c(C)c2c(c1C)CCC(C)(C(=O)OCCNCc1cc(N3CCCC3)nc(N3CCCC3)n1)O2", "note": "(stereo not given)", "melting point": "69.5 to 76"}, {"compound": "COc1cc(CC#N)c(CCNC(=O)C(F)(F)F)cc1OC", "melting point": 131}, {"compound": "Cn1cc(C(=O)O)c(=O)c2cc(F)c(N3CCNCC3)cc21", "melting point": 310}, {"compound": "O=c1nc(-c2ccc(C(F)(F)F)cn2)sc2ccccc12", "melting point": 207}, {"compound": "O=C(Oc1ccccc1)N1CCC2(CC1)c1ccccc1Oc1ccccc12", "melting point": "105 to 107"}, {"compound": "Nc1nc(Cl)cc(NC(CO)C2C=CCC2)n1", "note": "(stereo not given)", "melting point": "201 to 203"}, {"compound": "CCOC(=O)CCC1CCC(=O)N1", "note": "(stereo not given)", "melting point": "60 to 61"}, {"compound": "CCc1ccc(CCOc2ccc(NC(=O)N(C)C)cc2)nc1", "melting point": "121 to 122"}, {"compound": "C=CS(=O)(=O)CS(=O)(=O)C=C", "melting point": "59 to 61"}, {"compound": "Cc1ccc(S(=O)(=O)n2cc([C@@H]3C[C@H]3C=O)c3cc(C#N)ccc32)cc1", "note": "(relative stereo)", "melting point": "165 to 167"}, {"compound": "N#Cc1ccc(Oc2cccc(Oc3ccc(C#N)c(C#N)c3)c2)cc1C#N", "melting point": "183 to 186"}, {"compound": "O=C(N1CCN(c2ncccn2)CC1)N1CC(Oc2cccc(C(F)(F)F)c2)C1", "melting point": "127 to 128"}, {"compound": "CCC1(CCCCCBr)C(=O)Nc2ccccc21", "note": "(stereo not given)", "melting point": "77 to 78"}, {"compound": "O=C(N1CCCCCC1)N1CC(Oc2cccc(C(F)(F)F)c2)C1", "melting point": "64.5 to 66"}, {"compound": "Nc1nc(-c2cc(F)cc(F)c2)nc2nc(-c3ccco3)nn12", "melting point": "356 to 360"}, {"compound": "COc1cccc(Oc2c(NS(=O)(=O)c3ccc(C(C)(C)C)cc3)ncnc2OCCOc2ncc(-c3ccccc3)cn2)c1", "melting point": "160 to 161"}, {"compound": "N#Cc1c(N2CCCC2)c(F)cc2c(=O)c(C(=O)O)cn(C3CC3)c12", "melting point": "274 to 276"}, {"compound": "CCCCCCCCCOc1ccc(-c2ccc(C3CCC(C#N)(CCCCCCCCC)CC3)cc2)cc1", "note": "(stereo not given)", "melting point": 86}, {"compound": "Cc1c(-c2ccccc2F)[nH]c(NCc2ccccc2)c1C#N", "melting point": "151 to 152"}, {"compound": "CC1CC2CCC=C3C=C(Cl)NCC1=C32", "note": "(stereo not given)", "melting point": "279 to 281"}, {"compound": "O=C1CCc2cc(OCC(F)(F)C(F)(F)F)ccc21", "melting point": "52 to 54"}, {"compound": "CCOC(=O)CSC1=C(C=O)CCc2c(C(=O)OCC)sc(SC)c21", "melting point": "102 to 103"}, {"compound": "CCc1ccc(C(=O)c2c(N)sc3c2CCN(C(=O)OCc2ccccc2)C3)cc1", "melting point": "121 to 123"}, {"compound": "CN1C(=O)[C@H](NC(=O)/C=C/c2ccc(Br)cc2)N=C(c2ccccc2)c2ccccc21", "melting point": "121 to 124"}, {"compound": "Cc1nc2cc(S(=O)(=O)n3c(CCCC(=O)O)cc4cc(C(F)(F)F)ccc43)ccc2s1", "melting point": "171 to 178"}, {"compound": "O=C1c2ccccc2C(=O)N1CCCn1ccnc1-c1ccccc1", "melting point": "109 to 110"}, {"compound": "Fc1cc(CC2(Cc3ccnc(F)c3)c3cc(I)ccc3-c3ncccc32)ccn1", "melting point": "158 to 161"}, {"compound": "CC(=O)c1ccc(OCCOc2ccc3ccccc3c2)c([N+](=O)[O-])c1", "melting point": "158 to 160"}, {"compound": "CCCCCCCCCCCCCCCCCCNC(=O)OCC1(CO)CCCO1", "note": "(stereo not given)", "melting point": "57 to 58"}, {"compound": "Cn1cnc2cc(F)ccc2c1=O", "melting point": "133 to 135"}, {"compound": "CC1(C)COC(=O)N1c1nc(-c2ccccc2)cs1", "melting point": "94 to 97"}, {"compound": "CCNc1nc(NS(=O)(=O)c2ccc(N)cc2)cc(N2CCC2)n1", "melting point": "292 to 293"}, {"compound": "NC(=O)c1cccc(OCc2cccc(O)c2)c1", "melting point": "122 to 123"}, {"compound": "CCCC(=O)Oc1ccc2sc(S(N)(=O)=O)nc2c1", "melting point": 132}, {"compound": "COc1ccc(C(=O)Cc2c(Cl)cncc2Cl)cc1OC1CCCC1", "melting point": "119 to 120"}, {"compound": "CCCn1c(=O)nc(SC)c2[nH]c(C3CCCC3)nc21", "melting point": "258 to 259"}, {"compound": "N#CCCNC(=O)c1n[nH]cc1NC(=O)c1cc2ccccc2o1", "melting point": "231 to 233"}, {"compound": "O=C1Nc2cc(Cl)ccc2C(=O)C1c1cc2ccccc2o1", "note": "(stereo not given)", "melting point": 342}, {"compound": "CC1=C(C(N)=O)C(c2ccccc2)(N2CCN(c3ccc(F)cc3C)CC2)NO1", "note": "(stereo not given)", "melting point": "139 to 141"}, {"compound": "CCNC(=O)ON(C(C)=O)C(=O)NCC", "melting point": "84 to 86"}, {"compound": "CCOc1ccc(S(=O)(=O)N2c3ccc(Cl)cc3C(O)(c3ccccc3Cl)C2C(=O)N(C)CC(=O)OC)cc1", "note": "(stereo not given)", "melting point": "168 to 171"}, {"compound": "COc1cc(C(=O)c2c[nH]c(-c3ccc(Cl)cc3)n2)cc(OC)c1OC", "melting point": "193 to 195"}, {"compound": "CN(C1CCN(c2ncc3ncnc(Nc4ccc(F)c(Cl)c4)c3n2)CC1)S(C)(=O)=O", "melting point": "225 to 227"}, {"compound": "O=C(NCCc1ccccc1Cl)C1CCCCC1", "melting point": "93.5 to 93.9"}, {"compound": "CCCCCCCCCCCCCCCCCCOc1cccc(C(=O)C(=O)O)c1", "melting point": "77 to 79"}, {"compound": "COC(=O)c1cc(N)c(Oc2ccccc2)c(N2CCCC2)c1", "melting point": "154 to 156"}, {"compound": "COC(=O)c1cc(OC)c([N+](=O)[O-])cc1NC(C)=O", "melting point": "141 to 143"}, {"compound": "CCCc1nc2sc3c(NCc4cccnc4)ncnc3c2c2c1COC(C)(C)C2", "melting point": "259 to 260"}, {"compound": "COCCOc1nc(SC)c(C#N)c(N2CCc3ccccc3CC2)n1", "melting point": "108 to 111"}, {"compound": "CCN1c2ncc(CCc3cccnc3)cc2C(=O)N(C)c2cccnc21", "melting point": "79 to 80"}, {"compound": "CC(C)Oc1ccc2nc3ccc(C#N)cn3c(=O)c2c1", "melting point": "234 to 236"}, {"compound": "CCOC(=O)c1nc2c(=O)[nH]c3cc(C(F)(F)F)ccc3n2c1P(=O)(OCC)OCC", "melting point": "198 to 199"}, {"compound": "Cn1nc(C(=O)NCc2ccc(Cl)cc2)c(=O)c2cc(CO)ccc21", "melting point": "203 to 205"}, {"compound": "CCc1ccccc1NC(Nc1ccccc1CC)Nc1ccccc1CC", "melting point": "76 to 78"}, {"compound": "C=Cc1cc(CNC(=O)NCc2ccc(C(C)(C)C)cc2)cc(C)c1NS(C)(=O)=O", "melting point": "105 to 107"}, {"compound": "C#CCOC(=O)c1ccc(OCCC2CCN(c3ccc(Cl)nn3)CC2)cc1", "melting point": 122}, {"compound": "CCCSc1ncc(CC(NC(=O)C2CCCC2)C(=O)O)n1Cc1ccccc1Cl", "note": "(stereo not given)", "melting point": "173 to 175"}, {"compound": "FC(F)(F)c1ccccc1CC[C@H]1CNCCN1", "melting point": "43 to 47"}, {"compound": "COc1ccc(S(N)(=O)=O)cc1C(=O)NCC1CCCN1C1CC1", "note": "(stereo not given)", "melting point": 163}, {"compound": "c1ccc2cc(OCCc3c[nH]cn3)ccc2c1", "melting point": "157 to 158"}, {"compound": "COC(=O)CCSc1scnc1C(=O)O", "melting point": "112 to 116"}, {"compound": "O=c1c(-c2cccc(C(F)(F)F)c2)c(Cl)cnn1-c1ccc(F)cc1", "melting point": "88 to 90"}, {"compound": "CC(C)(C)c1ccc(Cn2cc(C(=O)C(=O)O)c3cc(-c4ccc(C(C)(C)C)cc4)ccc32)cc1", "melting point": "111 to 112"}, {"compound": "COCOc1ccc(C=O)c2cccc(C)c12", "melting point": "42 to 43"}, {"compound": "Cc1nc(-n2ccc(OCc3ccccc3)cc2=O)[nH]c1C(=O)NCc1ccccc1", "melting point": "183 to 184"}]}]}
